Reference: patent US20260285855A1, “HETEROARYL DERIVATIVES AS DDRS INHIBITORS” (CHIESI FARMACEUTICI S.P.A., priority 2023, published 2026)
pKi: −log10 of the molar value. Where two headings read alike, the source gives them in different places.

Tests used:
DDR2 = biological target: T1, DDR2 (Homo sapiens, UniProt Q16832); assay: LanthaScreen Europium Kinase Binding assay, DDR2
T1 construct: purchased Life Technologies
T1 sequence (Q16832 22-855): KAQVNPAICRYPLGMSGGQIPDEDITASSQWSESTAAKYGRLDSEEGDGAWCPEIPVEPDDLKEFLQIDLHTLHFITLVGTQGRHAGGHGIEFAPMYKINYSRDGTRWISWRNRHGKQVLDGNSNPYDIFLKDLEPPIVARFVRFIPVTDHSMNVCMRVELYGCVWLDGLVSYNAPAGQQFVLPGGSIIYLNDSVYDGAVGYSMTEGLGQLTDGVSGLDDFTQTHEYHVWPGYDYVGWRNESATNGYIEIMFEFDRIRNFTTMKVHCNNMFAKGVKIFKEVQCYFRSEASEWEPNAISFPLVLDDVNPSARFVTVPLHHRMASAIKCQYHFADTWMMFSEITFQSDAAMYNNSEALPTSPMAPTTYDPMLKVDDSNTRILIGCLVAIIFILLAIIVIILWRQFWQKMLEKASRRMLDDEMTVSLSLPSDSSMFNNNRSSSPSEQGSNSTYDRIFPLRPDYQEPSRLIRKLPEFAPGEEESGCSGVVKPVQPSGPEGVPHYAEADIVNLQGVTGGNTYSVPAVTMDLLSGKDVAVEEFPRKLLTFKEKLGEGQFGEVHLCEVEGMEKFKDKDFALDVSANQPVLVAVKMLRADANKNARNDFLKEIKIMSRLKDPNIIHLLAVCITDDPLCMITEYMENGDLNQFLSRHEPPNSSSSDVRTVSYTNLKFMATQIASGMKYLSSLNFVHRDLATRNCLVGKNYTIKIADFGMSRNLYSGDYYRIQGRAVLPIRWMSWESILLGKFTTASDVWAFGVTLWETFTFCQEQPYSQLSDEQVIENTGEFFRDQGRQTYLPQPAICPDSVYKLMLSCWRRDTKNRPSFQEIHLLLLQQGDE
Description: (§1) DDR1 and DDR2 binding assays were performed using Life Technologies LanthaScreen™ Europium Kinase Binding assay. […] IC50 values were determined in GraphPad Prism 7.0 software, using 4 parameter model: log (inhibitor) vs. response. IC50 values were converted in Ki using the Cheng-Prusoff equation (Ki-IC50/(1+ [Tracer]/Kd).

DDR1 = biological target: T2, DDR1 (Homo sapiens, UniProt Q08345); assay: LanthaScreen Europium Kinase Binding assay, DDR1
T2 construct: purchased Carna Biosciences
T2 sequence (Q08345 19-913): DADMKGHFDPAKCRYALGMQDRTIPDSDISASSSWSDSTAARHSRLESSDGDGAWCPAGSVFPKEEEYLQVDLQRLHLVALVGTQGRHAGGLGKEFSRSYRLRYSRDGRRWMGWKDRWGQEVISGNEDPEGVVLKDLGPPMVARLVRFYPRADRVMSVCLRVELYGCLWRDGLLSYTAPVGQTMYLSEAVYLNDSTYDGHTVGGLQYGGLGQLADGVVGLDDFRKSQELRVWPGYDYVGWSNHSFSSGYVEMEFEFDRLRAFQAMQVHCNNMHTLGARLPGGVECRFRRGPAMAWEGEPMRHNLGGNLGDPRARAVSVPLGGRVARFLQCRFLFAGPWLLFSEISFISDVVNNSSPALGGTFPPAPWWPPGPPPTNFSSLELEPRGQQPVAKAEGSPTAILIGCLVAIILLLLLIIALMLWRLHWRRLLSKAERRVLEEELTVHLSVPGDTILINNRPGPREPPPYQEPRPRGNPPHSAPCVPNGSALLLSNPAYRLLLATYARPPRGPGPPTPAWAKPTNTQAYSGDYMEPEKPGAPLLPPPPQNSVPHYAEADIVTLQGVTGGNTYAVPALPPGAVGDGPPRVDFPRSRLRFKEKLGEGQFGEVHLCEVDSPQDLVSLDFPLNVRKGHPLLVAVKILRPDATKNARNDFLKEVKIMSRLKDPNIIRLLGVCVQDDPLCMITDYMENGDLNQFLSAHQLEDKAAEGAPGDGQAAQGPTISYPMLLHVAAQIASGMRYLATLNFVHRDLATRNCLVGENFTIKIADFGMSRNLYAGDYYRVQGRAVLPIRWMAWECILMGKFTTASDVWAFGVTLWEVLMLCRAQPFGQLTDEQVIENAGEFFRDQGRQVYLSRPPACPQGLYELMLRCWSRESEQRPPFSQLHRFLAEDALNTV
Description: as §1

[1] = 5 nM DDR2, 10 nM Kinase Tracer 178, 1 h at rt, Ki from IC50 by Cheng-Prusoff, read-out: Ki DDR2
[2] = 5 nM DDR1, 20 nM Kinase Tracer 178, 1 h at rt, Ki from IC50 by Cheng-Prusoff, read-out: Ki DDR1
[3] = same binding assay, numeric values

Row | SMILES | pKi (DDR2; [1]) | pKi (DDR1; [2]) | other results
1 | CN(C)Cc1ccc(NC(=O)NC2CC3(C2)CN(C(=O)c2cnn4ccsc24)C3)cc1C(F)(F)F [Example 24, 1-(4-((dimethylamino)methyl)-3-(trifluoromethyl)phenyl)-3-(2-(pyrazolo[5,1-b]thiazole-7-carbonyl)-2-azaspiro[3.3]heptan-6-yl)urea] | 7.60 to 8.30 | > 8.30 | –
2 | COc1ccc(OC(F)(F)F)cc1NC(=O)CC1CC2(C1)CN(C(=O)c1cnn3ccn(C)c13)C2 [Example 142, N-(2-methoxy-5-(trifluoromethoxy)phenyl)-2-(2-(1-methyl-1H-imidazo[1,2-b]pyrazole-7-carbonyl)-2-azaspiro[3.3]heptan-6-yl)acetamide] | > 8.30 | > 8.30 | –
3 | Cc1c(-c2ccc3c(C(=O)N4CC5(CC(N(C)C(=O)Nc6cncc(C(F)(F)F)c6)C5)C4)cnn3c2)cnn1C [Example 261, 1-(2-(6-(1,5-dimethyl-1H-pyrazol-4-yl)pyrazolo[1,5-a]pyridine-3-carbonyl)-2-azaspiro[3.3]heptan-6-yl)-1-methyl-3-(5-(trifluoromethyl)pyridin-3-yl)urea] | 7.60 to 8.30 | > 8.30 | –
4 | CCN(C(=O)Nc1cc(F)cc(C(F)(F)F)c1)C1CC2(C1)CN(C(=O)c1cnn3ccn(C)c13)C2 [Example 86, 1-ethyl-3-(3-fluoro-5-(trifluoromethyl)phenyl)-1-(2-(1-methyl-1H-imidazo[1,2-b]pyrazole-7-carbonyl)-2-azaspiro[3.3]heptan-6-yl)urea] | 7.60 to 8.30 | > 8.30 | –
5 | CN(C(=O)Nc1cc(C(F)(F)F)ccn1)C1CC2(C1)CN(C(=O)c1cnn3cc(-c4cnn(C)c4)ccc13)C2 [Example 241, 1-methyl-1-(2-(6-(1-methyl-1H-pyrazol-4-yl)pyrazolo[1,5-a]pyridine-3-carbonyl)-2-azaspiro[3.3]heptan-6-yl)-3-(4-(trifluoromethyl)pyridin-2-yl)urea] | 7.60 to 8.30 | > 8.30 | –
6 | CN(C(=O)Nc1cncc(OC(F)(F)F)c1)C1CC2(C1)CN(c1cnc3[nH]ncc3c1)C2 [Example 221, 1-(2-(1H-pyrazolo[3,4-b]pyridin-5-yl)-2-azaspiro[3.3]heptan-6-yl)-1-methyl-3-(5-(trifluoromethoxy)pyridin-3-yl)urea] | 7.60 to 8.30 | > 8.30 | –
7 | Cn1ccn2ncc(C(=O)N3CC4(CC(NC(=O)Nc5cc(C(F)F)ccn5)C4)C3)c12 [Example 66, 1-(4-(difluoromethyl)pyridin-2-yl)-3-(2-(1-methyl-1H-imidazo[1,2-b]pyrazole-7-carbonyl)-2-azaspiro[3.3]heptan-6-yl)urea] | 7.60 to 8.30 | > 8.30 | –
8 | COc1ncc(Cl)cc1NC(=O)NC1CC2(C1)CN(C(=O)c1cnn3ccn(C)c13)C2 [Example 83, 1-(5-chloro-2-methoxypyridin-3-yl)-3-(2-(1-methyl-1H-imidazo[1,2-b]pyrazole-7-carbonyl)-2-azaspiro[3.3]heptan-6-yl)urea] | 7.60 to 8.30 | > 8.30 | –
9 | [2H]C([2H])([2H])N(C(=O)Nc1cccc(C(F)(F)F)c1)C1CC2(C1)CN(C(=O)c1cnn3ccn(C)c13)C2 [Example 158, 1-(methyl-d3)-1-(2-(1-methyl-1H-imidazo[1,2-b]pyrazole-7-carbonyl)-2-azaspiro[3.3]heptan-6-yl)-3-(3-(trifluoromethyl)phenyl)urea] | 7.60 to 8.30 | > 8.30 | –
10 | O=C(Nc1cc(C(F)(F)F)ccn1)NC1CC2(C1)CN(C(=O)c1ccnc3[nH]ncc13)C2 [Example 145, 1-(2-(1H-pyrazolo[3,4-b]pyridine-4-carbonyl)-2-azaspiro[3.3]heptan-6-yl)-3-(4-(trifluoromethyl)pyridin-2-yl)urea] | 7.60 to 8.30 | > 8.30 | –
11 | Cn1ccn2ncc(C(=O)N3CC4(CC(NC(=O)Nc5cccc(C(F)(F)F)c5)C4)C3)c12 [Example 9, 1-(2-(1-methyl-1H-imidazo[1,2-b]pyrazole-7-carbonyl)-2-azaspiro[3.3]heptan-6-yl)-3-(3-(trifluoromethyl)phenyl)urea] | > 8.30 | > 8.30 | –
12 | O=C(NC1CC2(C1)CN(C(=O)Nc1cccc(C(F)(F)F)c1)C2)c1cnn2ccncc12 [Example C3, N-(2-((3-(trifluoromethyl)phenyl)carbamoyl)-2-azaspiro[3.3]heptan-6-yl) pyrazolo[1,5-a]pyrazine-3-carboxamide, reference compound] | – | – | DDR2 Ki (nM) (DDR2; [3]): did not show a binding affinity; pKi (DDR2; same binding assay, numeric values, read-out: DDR2 Ki): < 6.30; DDR1 Ki (nM) (DDR1; [3]): did not show a binding affinity; pKi (DDR1; same binding assay, numeric values, read-out: DDR1 Ki): < 6.30
13 | CN(C(=O)Nc1cccc(C(F)(F)C(F)(F)F)c1)C1CC2(C1)CN(C(=O)c1cnn3ccn(C)c13)C2 [Example 117, 1-methyl-1-(2-(1-methyl-1H-imidazo[1,2-b]pyrazole-7-carbonyl)-2-azaspiro[3.3]heptan-6-yl)-3-(3-(perfluoroethyl)phenyl) urea] | > 8.30 | > 8.30 | –
14 | CN(C(=O)Nc1cc(Cl)cc(C(F)(F)F)c1)C1CC2(C1)CN(C(=O)c1ncnc3[nH]ccc13)C2 [Example 286, 1-(2-(7H-pyrrolo[2,3-d]pyrimidine-4-carbonyl)-2-azaspiro[3.3]heptan-6-yl)-3-(3-chloro-5-(trifluoromethyl)phenyl)-1-methylurea] | 7.60 to 8.30 | > 8.30 | –
15 | CN(C(=O)Nc1cncc(C(F)(F)C(F)(F)F)c1)C1CC2(C1)CN(C(=O)c1cnn3ccn(C)c13)C2 [Example 266, 1-methyl-1-(2-(1-methyl-1H-imidazo[1,2-b]pyrazole-7-carbonyl)-2-azaspiro[3.3]heptan-6-yl)-3-(5-(perfluoroethyl)pyridin-3-yl)urea] | 7.60 to 8.30 | > 8.30 | –
16 | CN(C(=O)Nc1cncc(OC(F)(F)F)c1)C1CC2(C1)CN(C(=O)c1ncnc3[nH]ccc13)C2 [Example 204, 1-(2-(7H-pyrrolo[2,3-d]pyrimidine-4-carbonyl)-2-azaspiro[3.3]heptan-6-yl)-1-methyl-3-(5-(trifluoromethoxy)pyridin-3-yl)urea] | 7.60 to 8.30 | > 8.30 | –
17 | Cn1ccn2ncc(C(=O)N3CC4(CC(NC(=O)Nc5ccc(Cl)c(C(F)(F)F)c5)C4)C3)c12 [Example 108, 1-(4-chloro-3-(trifluoromethyl)phenyl)-3-(2-(1-methyl-1H-imidazo[1,2-b]pyrazole-7-carbonyl)-2-azaspiro[3.3]heptan-6-yl)urea] | 7.60 to 8.30 | > 8.30 | –
18 | Cc1ccc(OC(F)(F)F)cc1NC(=O)N(C)C1CC2(C1)CN(C(=O)c1cnn3ccsc13)C2 [Example 151, 1-methyl-3-(2-methyl-5-(trifluoromethoxy)phenyl)-1-(2-(pyrazolo[5,1-b]thiazole-7-carbonyl)-2-azaspiro[3.3]heptan-6-yl)urea] | 7.60 to 8.30 | > 8.30 | –
19 | COc1cc(-c2ccc3c(C(=O)N4CC5(CC(N(C)C(=O)Nc6cncc(C(F)(F)F)c6)C5)C4)cnn3c2)ccn1 [Example 236, 1-(2-(6-(2-methoxypyridin-4-yl)pyrazolo[1,5-a]pyridine-3-carbonyl)-2-azaspiro[3.3]heptan-6-yl)-1-methyl-3-(5-(trifluoromethyl)pyridin-3-yl)urea] | 7.60 to 8.30 | > 8.30 | –
20 | Cc1cc(-c2ccc3c(C(=O)N4CC5(CC(N(C)C(=O)Nc6cncc(C(F)(F)F)c6)C5)C4)cnn3c2)on1 [Example 237, 1-methyl-1-(2-(6-(3-methylisoxazol-5-yl)pyrazolo[1,5-a]pyridine-3-carbonyl)-2-azaspiro[3.3]heptan-6-yl)-3-(5-(trifluoromethyl)pyridin-3-yl)urea] | 7.60 to 8.30 | > 8.30 | –
21 | COc1ccc(OC(F)(F)F)cc1NC(=O)NC1CC2(C1)CN(C(=O)c1cnn3ccsc13)C2 [Example 23, 1-(2-methoxy-5-(trifluoromethoxy)phenyl)-3-(2-(pyrazolo[5,1-b]thiazole-7-carbonyl)-2-azaspiro[3.3]heptan-6-yl)urea] | > 8.30 | > 8.30 | –
22 | O=C(Nc1cncc(C(F)(F)F)c1)OC1CC2(C1)CN(C(=O)c1cnn3ccsc13)C2 [Example 273, 2-(pyrazolo[5,1-b]thiazole-7-carbonyl)-2-azaspiro[3.3]heptan-6-yl(5-(trifluoromethyl)pyridin-3-yl)carbamate] | > 8.30 | > 8.30 | –
23 | CC(C)c1cncc(NC(=O)NC2CC3(C2)CN(C(=O)c2cnn4ccsc24)C3)c1 [Example 35, 1-(5-isopropylpyridin-3-yl)-3-(2-(pyrazolo[5,1-b]thiazole-7-carbonyl)-2-azaspiro[3.3]heptan-6-yl)urea] | 7.60 to 8.30 | > 8.30 | –
